Experimental data from patent US10214542B2, “Modified macrocyclic compounds” (BAYER PHARMA AKTIENGESELLSCHAFT, priority 2015, dated 2019).
Read-outs that look alike come from different tables or passages of the source.

Key:
A2780 cells = assay: Proliferation assay, Cell Titre-Glo viability (Method 3); format: cell-based, human; conditions: A2780, 72-hour exposure, read-out: Inhibition of A2780 cell proliferation IC50
Procedure: A2780 human ovarian carcinoma cells (ECACC #93112519) and non-adherent MOLM-13 human acute myeloid leukemia cells (DSMZ ACC 554) were seeded at a density of 3,000 cell/well (A2780) or 5,000 cells/well (MOLM-13) in a 96-well multititer plate in 150 μL of growth medium supplemented 10% fetal calf serum. After 24 hours, cell viability of one plate (zero-point plate) was determined with the Cell Titre-Glo Luminescent Cell Viability Assay (Promega), while the medium of the other plates was supplemented with the test substances in various concentrations (0 μM, as well as in the range of 0.0001-10 μM; the final concentration of the solvent dimethyl sulfoxide was adjusted to 0.1%) using a Hewlett-Packard HP D300 Digital Dispenser. Cell viability was assessed after 72-hour exposure with the Cell
Titre-Glo Luminescent Cell Viability Assay (Promega). IC50 values (inhibitory concentration at 50% of maximal effect) were determined by means of a 4 parameter fit on measurement data which were normalized to vehicle (DMSO) treated cells (=100%) and measurement readings taken immediately before compound exposure (=0%).

CDK2/CycE = target: T1, CDK2/CycE (Homo sapiens, UniProt P24941); assay: CDK2/CycE high ATP kinase assay (TR-FRET, Method 2b); format: biochemical; conditions: 2 mM ATP
T1 construct: GST; purchased ProQinase GmbH (Freiburg, Germany); host or cells: insect cells (Sf9)
Procedure: 2b. CDK2/CycE High ATP Kinase Assay:
CDK2/CycE-inhibitory activity of compounds of the present invention at 2 mM adenosine-tri-phosphate (ATP) was quantified employing the CDK2/CycE TR-FRET (TR-FRET=Time Resolved Fluorescence Resonance Energy Transfer) assay as described in the following paragraphs.
Recombinant fusion proteins of GST and human CDK2 and of GST and human CycE, expressed in insect cells (Sf9) and purified by Glutathion-Sepharose affinity chromatography, were purchase from ProQinase GmbH (Freiburg, Germany). As substrate for the kinase reaction biotinylated peptide biotin-Ttds-YISPLKSPYKISEG (C-terminus in amid form) was used which can be purchased e.g. from the company JERINI peptide technologies (Berlin, Germany).
For the assay 50 nl of a 100 fold concentrated solution of the test compound in DMSO was pipetted into a black low volume 384 well microtiter plate (Greiner Bio-One, Frickenhausen, Germany), 2 μl of a solution of CDK2/CycE in aqueous assay buffer [50 mM Tris/HCl pH 8.0, 10 mM MgCl2, 1.0 mM dithiothreitol, 0.1 mM sodium ortho-vanadate, 0.01% (v/v) Nonidet-P40 (Sigma)] were added and the mixture was incubated for 15 min at 22° C. to allow pre-binding of the test compounds to the enzyme before the start of the kinase reaction. Then the kinase reaction was started by the addition of 3 μl of a solution ATP (3.33 mM=>final conc. in the 5 μl assay volume is 2 mM) and substrate (1.25 μM=>final conc. in the 5 μl assay volume is 0.75 μM) in assay buffer and the resulting mixture was incubated for a reaction time of 25 min at 22° C. The concentration of CDK2/CycE was adjusted depending of the activity of the enzyme lot and was chosen appropriate to have the assay in the linear range, typical concentrations were in the range of 15 ng/ml. The reaction was stopped by the addition of 5 μl of a solution of TR-FRET detection reagents (0.2 μM streptavidine-XL665 [Cisbio Bioassays, Codolet, France] and 1 nM anti-RB(pSer807/pSer811)-antibody from BD Pharmingen [#558389] and 1.2 nM LANCE EU-W1024 labeled anti-mouse IgG antibody [Perkin-Elmer, product no. AD0077, as an alternative a Terbium-cryptate-labeled anti-mouse IgG antibody from Cisbio Bioassays can be used]) in an aqueous EDTA-solution (100 mM EDTA, 0.2% (w/v) bovine serum albumin in 100 mM HEPES pH 7.5).
The resulting mixture was incubated 1 h at 22° C. to allow the formation of complex between the phosphorylated biotinylated peptide and the detection reagents. Subsequently the amount of phosphorylated substrate was evaluated by measurement of the resonance energy transfer from the Eu-chelate to the streptavidine-XL. Therefore, the fluorescence emissions at 620 nm and 665 nm after excitation at 350 nm were measured in a TR-FRET reader, e.g. a Rubystar (BMG Labtechnologies, Offenburg, Germany) or a Viewlux (Perkin-Elmer). The ratio of the emissions at 665 nm and at […] was taken as the measure for the amount of phosphorylated substrate. The data were normalised (enzyme reaction without inhibitor=0% inhibition, all other assay components but no enzym=100% inhibition).

HeLa cells = assay: Proliferation assay, crystal violet (Method 3); format: cell-based, human; conditions: Homo sapiens, 96 h, 4 days, read-out: Inhibition of HeLa cell proliferation IC50
Procedure: Cultivated tumour cells (HeLa, human cervical tumour cells, ATCC CCL-2; NCI-H460, human non-small cell lung carcinoma cells, ATCC HTB-177; DU 145, hormone-independent human prostate carcinoma cells, ATCC HTB-81; HeLa-MaTu-ADR, multidrug-resistant human cervical carcinoma cells, EPO-GmbH Berlin; Caco-2, human colorectal carcinoma cells, ATCC HTB-37; B16F10, mouse melanoma cells, ATCC CRL-6475) were plated at a density of 5,000 cells/well (DU145, HeLa-MaTu-ADR), 3,000 cells/well (NCI-H460, HeLa), 1,500 cells/well (Caco-2), or 1,000 cells/well (B16F10) in a 96-well multititer plate in 200 μL of their respective growth medium supplemented 10% fetal calf serum. After 24 hours, the cells of one plate (zero-point plate) were stained with crystal violet (see below), while the medium of the other plates was supplemented with the test substances in various concentrations (0 μM, as well as in the range of 0.0001-10 μM; the final concentration of the solvent dimethyl sulfoxide was adjusted to 0.1%) using a Hewlett-Packard HP D300 Digital Dispenser. The cells were incubated for 4 days in the presence of test substances. Cell proliferation was determined by staining the cells with crystal violet: the cells were fixed by adding 20 μl/measuring point of an 11% glutaric aldehyde solution for 15 minutes at room temperature. After three washing cycles of the fixed cells with water, the plates were dried at room temperature. The cells were stained by adding 100 μl/measuring point of a 0.1% crystal violet solution (pH 3.0). After three washing cycles of the stained cells with water, the plates were dried at room temperature. The dye was dissolved by adding 100 μl/measuring point of a 10% acetic acid solution. The extinction was determined by photometry at a wavelength of 595 nm. The change of cell number, in percent, was calculated by normalization of the measured values to the extinction values of the zero-point plate (=0%) and the extinction of the untreated (0 μm) cells (=100%). The IC50 values (inhibitory concentration at 50% of maximal effect) were determined by means of a 4 parameter fit.

Row | Structure (SMILES) | IC50 (A2780 cells; Homo sapiens, A2780, 72 h) | IC50 (CDK2/CycE) | IC50 (HeLa cells) | IC50 (A2780 cells)
1 | CSCc1cc2nc(c1)OCCCCCc1cc(F)ccc1-c1cc(ncc1F)N2 [Example 18, 2,19-difluoro-9-[(methylsulfanyl)methyl]-14,15,16,17-tetrahydro-6H,13H-7,11-(azeno)-5,1-(metheno)-12,4,6-benzoxadiazacyclononadecine] | > 100 nM | > 20000 nM | > 10000 nM | 
2 | CC(C)(C)OC(=O)N=S(C)(=O)Cc1cc2nc(c1)Nc1cc(c(F)cn1)-c1ccc(F)cc1OCCCCCN2 (racemic) [Example 9, (rac)-tert-butyl[{[17,21-difluoro-2,3,4,5,6,7-hexahydro-13H-12,8-(azeno)-14,18-(metheno)-1,7,13,15-benzoxatriazacycloicosin-10-yl]methyl}(methyl)oxido-λ^6-sulfanylidene]carbamate] | 27 nM | 253 nM | 33 nM | 
3 | CC(C)(C)OC(=O)N=S(C)(=O)Cc1cc2nc(c1)Nc1cc(c(F)cn1)-c1ccc(F)cc1OCCCN2 (racemic) [Example 7, (rac)-tert-butyl[{[15,19-difluoro-2,3,4,5-tetrahydro-11H-10,6-(azeno)-16,12-(metheno)-1,5,11,13-benzoxatriazacyclooctadecin-8-yl]methyl}(methyl)oxido-λ^6-sulfanylidene]carbamate] | 7 nM | 61 nM | 32 nM | 
4 | CSCc1cc2nc(c1)Nc1cc(c(F)cn1)-c1ccc(F)cc1OCCCN2 [Example 1, 15,19-Difluoro-8-[(methylsulfanyl)methyl]-2,3,4,5-tetrahydro-11H-10,6-(azeno)-12,16-(metheno)-1,5,11,13-benzoxatriazacyclooctadecine] | 9 nM | 531 nM | 28 nM | 
5 | C[S+]([O-])Cc1cc2nc(c1)OCCCCCc1cc(F)ccc1-c1cc(ncc1F)N2 (racemic) [Example 19, (rac)-2,19-difluoro-9-[(methylsulfinyl)methyl]-14,15,16,17-tetrahydro-6H,13H-7,11-(azeno)-5,1-(metheno)-12,4,6-benzoxadiazacyclononadecine] | > 100 nM | 1410 nM | 1000 nM | 
6 | CS(=N)(=O)Cc1cc2nc(c1)Nc1cc(c(F)cn1)-c1ccc(F)cc1OCCCCCN2 (racemic) [Example 10, (rac)-17,21-difluoro-10-[(S-methylsulfonimidoyl)methyl]-2,3,4,5,6,7-hexahydro-13H-12,8-(azeno)-14,18-(metheno)-1,7,13,15-benzoxatriazacycloicosine] | 5.2 nM | 102 nM | 14 nM | 
7 | CN1CCCCNc2cc(F)ccc2-c2nc(ncc2F)Nc2cc(CS(C)(=N)=O)cc1c2.O=CO (racemic) [Example 17, (rac)-16,20-difluoro-6-methyl-9-[(S-methylsulfonimidoyl)methyl]-1,2,3,4,5,6-hexahydro-12H-17,13-(azeno)-11,7-(metheno)-1,6,12,14-benzotetraazacyclononadecine; salt with formic acid] | 6.5 nM | 622 nM | 31 nM | 
8 | CS(=N)(=O)Cc1cc2nc(c1)OCCCCCc1cc(F)ccc1-c1cc(ncc1F)N2 (racemic) [Example 20, (rac)-2,19-difluoro-9-[(S-methylsulfonimidoyl)methyl]-14,15,16,17-tetrahydro-6H,13H-7,11-(azeno)-5,1-(metheno)-12,4,6-benzoxadiazacyclononadecine] | > 100 nM | 921 nM | 408 nM | 161 nM
9 | CS(=N)(=O)Cc1cc2cc(c1)OCCCCNc1cc(F)ccc1-c1nc(ncc1F)N2 (racemic) [Example 16, (rac)-16,20-difluoro-9-[(S-methylsulfonimidoyl)methyl]-2,3,4,5-tetrahydro-1H-17,13-(azeno)-7,11-(metheno)-6,1,12,14-benzoxatriazacyclononadecine] | 8.2 nM | 227 nM | 10 nM | 
10 | CC(C)(C)OC(=O)N=S(C)(=O)Cc1cc2cc(c1)OCCCCNc1cc(F)ccc1-c1nc(ncc1F)N2 (racemic) [Example 15, (rac)-tert-butyl[{[16,20-difluoro-2,3,4,5-tetrahydro-1H,12H-13,17-(azeno)-11,7-(metheno)-6,1,12,14-benzoxatriazacyclononadecin-9-yl]methyl}(methyl)oxido-λ^6-sulfanylidene]carbamate] | 31 nM | 3350 nM | 33 nM | 
